From article PMC5218480 (PLoS ONE, 2017)

Tested on: MV-4-11 cells
Test: Gene expression microarray analysis (Affymetrix PrimeView) and GSEA
Assay type: cell-based, human
Design: RFU PODN (11730768_x_at) / Fold change /veh PODN (11730768_x_at) / RFU LINC00158 (11744669_a_at) / Fold change /veh LINC00158 (11744669_a_at) / RFU DUSP10 (11751237_a_at) / Fold change /veh DUSP10 (11751237_a_at) / RFU ID3 (11757404_x_at) / Fold change /veh ID3 (11757404_x_at) / RFU PLEKHG5 (11737974_s_at) / Fold change /veh PLEKHG5 (11737974_s_at) / RFU LRRC4B (11730491_at) / Fold change /veh LRRC4B (11730491_at) / RFU GIMAP4 (11747438_a_at) / Fold change /veh GIMAP4 (11747438_a_at) / RFU KRT8 (11758183_x_at) / Fold change /veh KRT8 (11758183_x_at) / RFU CNN1 (11734310_a_at) / Fold change /veh CNN1 (11734310_a_at) / RFU VPS37D (11726825_at) / Fold change /veh VPS37D (11726825_at) / RFU C10orf10 (11716522_x_at) / Fold change /veh C10orf10 (11716522_x_at) / RFU KIR2DL2 /// KIR2DL4 /// KIR2DL5A /// KIR2DL5B /// KIR2DS1 /// KIR2DS2 /// KIR2DS3 /// KIR2DS4 /// KIR3DL3 /// KIR3DL3 /// KIR3DS1 (11738374_at) / Fold change /veh KIR2DL2 /// KIR2DL4 /// KIR2DL5A /// KIR2DL5B /// KIR2DS1 /// KIR2DS2 /// KIR2DS3 /// KIR2DS4 /// KIR3DL3 /// KIR3DL3 /// KIR3DS1 (11738374_at) / RFU C1QL1 (11718748_at) / Fold change /veh C1QL1 (11718748_at) / RFU TMPRSS4 (11747572_a_at) / Fold change /veh TMPRSS4 (11747572_a_at) / RFU HAMP (11756126_x_at) / Fold change /veh HAMP (11756126_x_at) / RFU RNFT2 (11725882_a_at) / Fold change /veh RNFT2 (11725882_a_at) / RFU NR4A2 (11747474_a_at) / Fold change /veh NR4A2 (11747474_a_at) / RFU ABCC12 (11746883_a_at) / Fold change /veh ABCC12 (11746883_a_at) / RFU TMEM136 (11760407_x_at) / Fold change /veh TMEM136 (11760407_x_at) / RFU CLDN22 /// WWC2 (11732394_at) / Fold change /veh CLDN22 /// WWC2 (11732394_at) / RFU HLA-DPB1 (11760878_x_at) / Fold change /veh HLA-DPB1 (11760878_x_at) / RFU SPINT1 (11716480_a_at) / Fold change /veh SPINT1 (11716480_a_at) / RFU GAP43 (11754022_s_at) / Fold change /veh GAP43 (11754022_s_at) / RFU A4GNT (11735810_at) / Fold change /veh A4GNT (11735810_at) / RFU PRB3 (11715151_x_at) / Fold change /veh PRB3 (11715151_x_at) / RFU TUBB4B (11761932_at) / Fold change /veh TUBB4B (11761932_at) / RFU CAPN14 (11732068_a_at) / Fold change /veh CAPN14 (11732068_a_at) / RFU TMCC2 (11721928_a_at) / Fold change /veh TMCC2 (11721928_a_at) / RFU IRGQ (11745062_a_at) / Fold change /veh IRGQ (11745062_a_at) / RFU FAM174B (11720279_a_at) / Fold change /veh FAM174B (11720279_a_at) / RFU TMPRSS4 (11748680_a_at) / Fold change /veh TMPRSS4 (11748680_a_at) / RFU FAM212B (11763350_a_at) / Fold change /veh FAM212B (11763350_a_at) / RFU PLEKHG5 (11743358_a_at) / Fold change /veh PLEKHG5 (11743358_a_at) / RFU ZSCAN30 (11745921_a_at) / Fold change /veh ZSCAN30 (11745921_a_at) / RFU CMKLR1 (11741424_a_at) / Fold change /veh CMKLR1 (11741424_a_at) / RFU LOC101060620 /// MAPK8IP1 (11723275_at) / Fold change /veh LOC101060620 /// MAPK8IP1 (11723275_at) / RFU SPTSSB (11747773_x_at) / Fold change /veh SPTSSB (11747773_x_at) / RFU PRSS12 (11739890_at) / Fold change /veh PRSS12 (11739890_at) / RFU BIN1 (11741810_x_at) / Fold change /veh BIN1 (11741810_x_at) / RFU WNT11 (11732464_a_at) / Fold change /veh WNT11 (11732464_a_at) / RFU C10orf10 (11716521_a_at) / Fold change /veh C10orf10 (11716521_a_at) / RFU C5orf56 (11738089_at) / Fold change /veh C5orf56 (11738089_at) / RFU CYB561 (11721691_x_at) / Fold change /veh CYB561 (11721691_x_at) / RFU ANKRD19P (11752326_a_at) / Fold change /veh ANKRD19P (11752326_a_at) / RFU OR2T12 /// OR2T33 /// OR2T8 (11738714_s_at) / Fold change /veh OR2T12 /// OR2T33 /// OR2T8 (11738714_s_at) / RFU VCAN (11748164_a_at) / Fold change /veh VCAN (11748164_a_at) / RFU JSRP1 (11732532_at) / Fold change /veh JSRP1 (11732532_at) / RFU KRTAP10-11 (11738290_x_at) / Fold change /veh KRTAP10-11 (11738290_x_at) / RFU MYO3A (11730013_a_at) / Fold change /veh MYO3A (11730013_a_at) / RFU EBF3 (11725865_a_at) / Fold change /veh EBF3 (11725865_a_at) / RFU CAMK2N1 (11719241_x_at) / Fold change /veh CAMK2N1 (11719241_x_at) / RFU C5orf56 (11738088_a_at) / Fold change /veh C5orf56 (11738088_a_at) / RFU OLFML3 (11715873_a_at) / Fold change /veh OLFML3 (11715873_a_at) / RFU LOC100653217 /// NTM (11731650_a_at) / Fold change /veh LOC100653217 /// NTM (11731650_a_at) / RFU MAPK11 (11762145_a_at) / Fold change /veh MAPK11 (11762145_a_at) / RFU FIZ1 (11724087_x_at) / Fold change /veh FIZ1 (11724087_x_at) / RFU OASL (11726364_x_at) / Fold change /veh OASL (11726364_x_at) / RFU SOX15 (11748057_x_at) / Fold change /veh SOX15 (11748057_x_at) / RFU CD79A (11719716_a_at) / Fold change /veh CD79A (11719716_a_at) / RFU HIST1H1D (11736915_at) / Fold change /veh HIST1H1D (11736915_at) / RFU CASKIN2 (11723855_a_at) / Fold change /veh CASKIN2 (11723855_a_at) / RFU LOC730098 (11760151_x_at) / Fold change /veh LOC730098 (11760151_x_at) / RFU OR4N2 (11742367_at) / Fold change /veh OR4N2 (11742367_at) / RFU PRRT2 (11749266_a_at) / Fold change /veh PRRT2 (11749266_a_at) / RFU SNX32 (11753110_a_at) / Fold change /veh SNX32 (11753110_a_at) / RFU CDHR5 (11726645_a_at) / Fold change /veh CDHR5 (11726645_a_at) / RFU RCAN1 (11760418_a_at) / Fold change /veh RCAN1 (11760418_a_at) / RFU FAM167A (11723789_a_at) / Fold change /veh FAM167A (11723789_a_at) / RFU FAM26E (11764081_at) / Fold change /veh FAM26E (11764081_at) / RFU ISYNA1 (11749810_s_at) / Fold change /veh ISYNA1 (11749810_s_at) / RFU ACY1 (11761880_at) / Fold change /veh ACY1 (11761880_at) / RFU 11764098_at / Fold change /veh 11764098_at / RFU SAMD14 (11745864_x_at) / Fold change /veh SAMD14 (11745864_x_at) / RFU NPB (11741838_a_at) / Fold change /veh NPB (11741838_a_at) / RFU TMPRSS6 (11731388_a_at) / Fold change /veh TMPRSS6 (11731388_a_at) / RFU KRTAP10-2 (11738614_at) / Fold change /veh KRTAP10-2 (11738614_at) / RFU ARHGAP8 /// PRR5-ARHGAP8 (11727945_x_at) / Fold change /veh ARHGAP8 /// PRR5-ARHGAP8 (11727945_x_at) / RFU KRTAP5-7 /// NADSYN1 (11734609_at) / Fold change /veh KRTAP5-7 /// NADSYN1 (11734609_at) / RFU RASL12 (11751679_a_at) / Fold change /veh RASL12 (11751679_a_at) / RFU CDKN2B (11736163_a_at) / Fold change /veh CDKN2B (11736163_a_at) / RFU PRF1 (11729649_at) / Fold change /veh PRF1 (11729649_at) / RFU, ZNF638 /// ZNF638-IT1 / Fold change vs veh, ZNF638 /// ZNF638-IT1 / RFU, PANK3 / Fold change vs veh, PANK3 / RFU, SH3YL1 / Fold change vs veh, SH3YL1 / RFU, ZEB2 / Fold change vs veh, ZEB2 / RFU, NRIP1 / Fold change vs veh, NRIP1 / RFU, PTTG1IP / Fold change vs veh, PTTG1IP / RFU, CAPN2 / Fold change vs veh, CAPN2 / RFU, MED14 / Fold change vs veh, MED14 / RFU, SNORA58 / Fold change vs veh, SNORA58 / RFU, C1orf63 / Fold change vs veh, C1orf63 / RFU, LRRFIP1 / Fold change vs veh, LRRFIP1 / RFU, NDUFAF7 / Fold change vs veh, NDUFAF7 / RFU, SLC12A2 / Fold change vs veh, SLC12A2 / RFU, IBTK / Fold change vs veh, IBTK / RFU, ESF1 / Fold change vs veh, ESF1 / Fold change vs veh, TMEM50B / RFU, TAOK1 / Fold change vs veh, TAOK1 / RFU, ACBD3 / Fold change vs veh, ACBD3 / RFU, TMA16 / Fold change vs veh, TMA16 / RFU, RWDD3 / Fold change vs veh, RWDD3 / RFU, BCAT1 / Fold change vs veh, BCAT1 / RFU, EDEM3 / Fold change vs veh, EDEM3 / RFU, TMEM33 / Fold change vs veh, TMEM33 / RFU, WDR75 / Fold change vs veh, WDR75 / RFU, AHCTF1 / Fold change vs veh, AHCTF1 / RFU, TFRC / Fold change vs veh, TFRC / RFU, ZDHHC17 / Fold change vs veh, ZDHHC17 / RFU, NOM1 / Fold change vs veh, NOM1 / RFU, ARL8B / Fold change vs veh, ARL8B / RFU, ZBTB11 / Fold change vs veh, ZBTB11 / RFU, TAMM41 / Fold change vs veh, TAMM41 / RFU, KIAA1704 /// LOC100996395 / Fold change vs veh, KIAA1704 /// LOC100996395 / RFU, ING1 / Fold change vs veh, ING1 / RFU, TRMT61B / Fold change vs veh, TRMT61B / RFU, FUBP3 / Fold change vs veh, FUBP3 / RFU, TP53 / Fold change vs veh, TP53 / RFU, TNKS2 / Fold change vs veh, TNKS2 / RFU, ZFP14 / Fold change vs veh, ZFP14 / RFU, ACTR2 / Fold change vs veh, ACTR2 / RFU, PPP3R1 / Fold change vs veh, PPP3R1 / RFU, PIK3R1 / Fold change vs veh, PIK3R1 / RFU, HNRNPA1 / Fold change vs veh, HNRNPA1 / RFU, RNF170 / Fold change vs veh, RNF170 / RFU, ZNF28 / Fold change vs veh, ZNF28 / RFU, RNGTT / Fold change vs veh, RNGTT / RFU, OGT / Fold change vs veh, OGT / RFU, BRD1 / Fold change vs veh, BRD1 / RFU, MARS / Fold change vs veh, MARS / RFU, ZNF655 / Fold change vs veh, ZNF655 / RFU, FAHD1 / Fold change vs veh, FAHD1 / RFU, BDP1 / Fold change vs veh, BDP1 / RFU, LRRCC1 / Fold change vs veh, LRRCC1 / RFU, ARID1A / Fold change vs veh, ARID1A / RFU, ZNF146 / Fold change vs veh, ZNF146 / RFU, ZNF330 / Fold change vs veh, ZNF330 / RFU, GPN3 / Fold change vs veh, GPN3 / RFU, C9orf123 / Fold change vs veh, C9orf123 / RFU, N4BP2L2 / Fold change vs veh, N4BP2L2 / RFU, ARFIP1 / Fold change vs veh, ARFIP1 / RFU, FAM179B / Fold change vs veh, FAM179B / RFU, BCL10 / Fold change vs veh, BCL10 / RFU, UHRF1BP1L / Fold change vs veh, UHRF1BP1L / RFU, BET1 / Fold change vs veh, BET1 / RFU, CNOT2 / Fold change vs veh, CNOT2 / RFU, ZNF268 / Fold change vs veh, ZNF268 / Fold change vs veh, ZNF507 / RFU, DGCR2 / Fold change vs veh, DGCR2 / RFU, WDSUB1 / Fold change vs veh, WDSUB1 / Fold change vs veh, HSP90B1 /// MIR3652 / RFU, ADSS / Fold change vs veh, ADSS / RFU, GK / Fold change vs veh, GK / RFU, ZNF148 / Fold change vs veh, ZNF148 / RFU, TAF9 / Fold change vs veh, TAF9 / RFU, SLC1A5 / Fold change vs veh, SLC1A5 / RFU, SLMO2 / Fold change vs veh, SLMO2 / RFU, ABCC4 / Fold change vs veh, ABCC4 / RFU, LOC101060439 /// RAP1B / Fold change vs veh, LOC101060439 /// RAP1B / RFU, RFX7 / Fold change vs veh, RFX7 / RFU, GTPBP10 / Fold change vs veh, GTPBP10 / RFU, CNEP1R1 / Fold change vs veh, CNEP1R1 / RFU, BIVM-ERCC5 /// ERCC5 / Fold change vs veh, BIVM-ERCC5 /// ERCC5 / RFU, ILF3 / Fold change vs veh, ILF3 / RFU 11762660_at / Fold change /veh 11762660_at / RFU VCAN (11757783_s_at) / Fold change /veh VCAN (11757783_s_at) / RFU DDX43 (11728927_at) / Fold change /veh DDX43 (11728927_at) / RFU KRT8 (11758188_x_at) / Fold change /veh KRT8 (11758188_x_at) / RFU NKD1 (11759106_at) / Fold change /veh NKD1 (11759106_at) / RFU SRD5A1 (11742802_a_at) / Fold change /veh SRD5A1 (11742802_a_at) / RFU TPSAB1 /// TPSB2 (11721975_s_at) / Fold change /veh TPSAB1 /// TPSB2 (11721975_s_at) / RFU GSTM3 (11746129_a_at) / Fold change /veh GSTM3 (11746129_a_at) / RFU IL23R (11737362_x_at) / Fold change /veh IL23R (11737362_x_at) / RFU TMEM51 (11727254_a_at) / Fold change /veh TMEM51 (11727254_a_at) / RFU PIWIL2 (11732686_x_at) / Fold change /veh PIWIL2 (11732686_x_at) / RFU ORM1 (11744905_x_at) / Fold change /veh ORM1 (11744905_x_at) / RFU CCDC152 (11743942_at) / Fold change /veh CCDC152 (11743942_at) / RFU ECM1 (11717891_a_at) / Fold change /veh ECM1 (11717891_a_at) / RFU IL23R (11748794_a_at) / Fold change /veh IL23R (11748794_a_at) / RFU TNFAIP8L3 (11732012_x_at) / Fold change /veh TNFAIP8L3 (11732012_x_at) / RFU MBOAT4 (11741988_at) / Fold change /veh MBOAT4 (11741988_at) / RFU 11764193_at / Fold change /veh 11764193_at / RFU TMEM53 (11763286_at) / Fold change /veh TMEM53 (11763286_at) / RFU MAGEB2 (11727129_at) / Fold change /veh MAGEB2 (11727129_at) / RFU TMEM200A (11744735_a_at) / Fold change /veh TMEM200A (11744735_a_at) / RFU CCDC152 (11751479_a_at) / Fold change /veh CCDC152 (11751479_a_at) / RFU FAM211A (11726209_a_at) / Fold change /veh FAM211A (11726209_a_at) / RFU RGS16 (11746705_a_at) / Fold change /veh RGS16 (11746705_a_at) / RFU VCAN (11755009_s_at) / Fold change /veh VCAN (11755009_s_at) / RFU RHOB (11743442_s_at) / Fold change /veh RHOB (11743442_s_at) / RFU RGS16 (11720943_a_at) / Fold change /veh RGS16 (11720943_a_at) / RFU RGS16 (11720944_at) / Fold change /veh RGS16 (11720944_at) / RFU, VPS4B / Fold change vs veh, VPS4B / RFU, CREB1 / Fold change vs veh, CREB1 / RFU, DNAJC13 / Fold change vs veh, DNAJC13 / RFU, GNAQ / Fold change vs veh, GNAQ / RFU, CDK5R1 / Fold change vs veh, CDK5R1 / RFU, ZRANB3 / Fold change vs veh, ZRANB3 / RFU, CUL4A / Fold change vs veh, CUL4A / RFU, CCNY / Fold change vs veh, CCNY / RFU, UFL1 / Fold change vs veh, UFL1 / RFU, COG3 / Fold change vs veh, COG3 / RFU, DIAPH2 / Fold change vs veh, DIAPH2 / RFU, SKA2 / Fold change vs veh, SKA2 / RFU, AFF3 / Fold change vs veh, AFF3 / RFU, LMF1 / Fold change vs veh, LMF1 / RFU, IPO11 / Fold change vs veh, IPO11 / RFU, DFFB / Fold change vs veh, DFFB / RFU, FOXP1 / Fold change vs veh, FOXP1 / RFU, CARD8 / Fold change vs veh, CARD8 / RFU, STRN3 / Fold change vs veh, STRN3 / RFU, ADK / Fold change vs veh, ADK / RFU, RASSF2 / Fold change vs veh, RASSF2 / RFU, WIPF1 / Fold change vs veh, WIPF1 / RFU, LARP1B / Fold change vs veh, LARP1B / RFU, RASA1 / Fold change vs veh, RASA1 / RFU, RB1 / Fold change vs veh, RB1 / RFU, PPFIA1 / Fold change vs veh, PPFIA1 / RFU, MAT2A / Fold change vs veh, MAT2A / RFU, CCT5 / Fold change vs veh, CCT5 / RFU, WDR92 / Fold change vs veh, WDR92 / RFU, CUX1 / Fold change vs veh, CUX1 / RFU, TTC7A / Fold change vs veh, TTC7A / RFU, TMEM135 / Fold change vs veh, TMEM135 / RFU, DEPTOR / Fold change vs veh, DEPTOR / RFU, CPM / Fold change vs veh, CPM / RFU, DNAJB6 / Fold change vs veh, DNAJB6 / RFU, CACNA2D3 / Fold change vs veh, CACNA2D3 / RFU, DTX4 / Fold change vs veh, DTX4 / RFU, TFCP2 / Fold change vs veh, TFCP2 / RFU, GMCL1 /// GMCL1P1 / Fold change vs veh, GMCL1 /// GMCL1P1 / RFU, AEBP2 / Fold change vs veh, AEBP2 / RFU, SNHG1 /// SNORD22 /// SNORD25 /// SNORD26 /// SNORD27 /// SNORD28 /// SNORD29 /// SNORD31 / Fold change vs veh, SNHG1 /// SNORD22 /// SNORD25 /// SNORD26 /// SNORD27 /// SNORD28 /// SNORD29 /// SNORD31 / Fold change (Aza/veh), C12orf56 (ProbeSet 11735607_a_at) / Fold change (ACY-1035/veh), C12orf56 (ProbeSet 11735607_a_at) / Fold change (Aza/veh), FGFR1OP (ProbeSet 11751329_s_at) / Fold change (ACY-1035/veh), FGFR1OP (ProbeSet 11751329_s_at) / Fold change (Aza/veh), VPS36 (ProbeSet 11739960_a_at) / Fold change (ACY-1035/veh), VPS36 (ProbeSet 11739960_a_at) / RFU SYPL1 (11715823_x_at) / Fold change /veh SYPL1 (11715823_x_at) / RFU IGFBP7 (11715501_s_at) / Fold change /veh IGFBP7 (11715501_s_at) / RFU REEP3 (11722064_at) / Fold change /veh REEP3 (11722064_at) / RFU IGLL1 (11728026_x_at) / Fold change /veh IGLL1 (11728026_x_at): dose or concentration left out as unconfirmed
Conditions: ProbeSet 11716999_a_at; LIST D

Nc1ncn([C@@H]2O[C@H](CO)[C@@H](O)[C@H]2O)c(=O)n1 [azacitidine]
RFU, RASA1: 172.86 RFU
